Holding throughout (type): cell-based, S. cerevisiae
What all share (conditions): 1 uM small molecule, difference to activity without small molecule, average of two trials

In assay [1] the target is T1, LexA rGR2 / B42 (GSG)2eDHFR (UniProt P06536+P0ABQ4, C656G/F620S).
T1 construct: expressed in transfected cells; host or cells: S. cerevisiae FY250 with pMW106 lacZ reporter
T1 sequence (P06536 524-795 F620S/C656G limits assumed): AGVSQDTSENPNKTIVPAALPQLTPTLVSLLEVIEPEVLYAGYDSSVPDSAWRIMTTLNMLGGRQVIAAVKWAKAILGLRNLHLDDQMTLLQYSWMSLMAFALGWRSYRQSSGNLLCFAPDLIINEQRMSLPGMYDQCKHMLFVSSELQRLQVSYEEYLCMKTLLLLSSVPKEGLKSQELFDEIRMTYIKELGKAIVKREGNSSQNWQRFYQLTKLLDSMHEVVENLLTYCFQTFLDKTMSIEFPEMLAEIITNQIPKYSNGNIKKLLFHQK
T1 sequence (P0ABQ4 1-159): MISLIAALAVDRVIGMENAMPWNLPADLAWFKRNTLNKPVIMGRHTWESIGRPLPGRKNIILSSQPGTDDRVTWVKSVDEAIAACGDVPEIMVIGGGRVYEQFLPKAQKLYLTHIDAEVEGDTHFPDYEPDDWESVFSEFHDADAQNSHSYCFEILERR
As to the kind of experiment: β-galactosidase activity assay, strain V509Y. The source says: (§1) Table III explains the components of each strain. Each strain was constructed from the parent yeast strain FY250 and also contains the pMW106 plasmid, which has the LacZ reporter gene that is turned on only in when the LexA DNA binding domain and the B42 activation are brought in tot he vicinity of each other. We use several different strains because we use DHFR from two different species, mDHFR is from murine, while eDHFR is from E. coli. We are asl oable to switch the small moleculebinding domains. For example, the strain containing LexA-eDHFR with B42-rGH2 is a different strain and behaves differently from the strain containing LexA-rGR2 with B42-eDHFR. We also put in short 6 amino acid linkers between the two domains of our protein chimeras and thus these are different strain as well.
(§2) The results in Table IV are averages of two separate trials. Each strain was examined with small molecules and without small molecules. The absolute activity is given as the β-galactisidase activity […]. The average β-galactosidse activity for a strain without small molecule (i.e. the negative control) was about 100 β-galactosidase units.

The target of assay [2] is T2, LexA (GSG)2eDHFR / B42 gly6rGR2 (UniProt P06536+P0ABQ4, C656G/F620S).
T2 construct: rat Glucocorticoid Receptor (aa 524-795) with point mutations; expressed in transfected cells; host or cells: S. cerevisiae FY250
T2 sequence (P0ABQ4 1-159): T1 sequence (P0ABQ4 1-159)
T2 sequence (P06536 524-795 F620S/C656G limits assumed): T1 sequence (P06536 524-795 F620S/C656G limits assumed)
As to the kind of experiment: β-galactosidase activity assay, strain V499Y.
Excerpt: as §1, §2

Assay [3] deals with T3, LexA rGR2 / B42 (GSG)2mDHFR (UniProt P00375+P06536, C656G/F620S).
T3 construct: expressed in transfected cells; host or cells: S. cerevisiae FY250 with pMW106 lacZ reporter
T3 sequence (P06536 524-795 F620S/C656G limits assumed): T1 sequence (P06536 524-795 F620S/C656G limits assumed)
T3 sequence (P00375 1-187): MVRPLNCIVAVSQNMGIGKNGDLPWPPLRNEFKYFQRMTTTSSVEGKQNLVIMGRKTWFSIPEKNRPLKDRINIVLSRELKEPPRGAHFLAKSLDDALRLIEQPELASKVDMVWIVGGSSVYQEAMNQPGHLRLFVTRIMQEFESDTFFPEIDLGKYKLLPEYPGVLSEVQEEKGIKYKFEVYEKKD
Put plainly: β-galactosidase activity assay, strain V511Y.
Excerpt: as §1, §2

Assay [4] deals with T4, LexA mDHFR / B42 (GSG)rGR2 (UniProt P00375+P06536, C656G/F620S).
T4 construct: rat Glucocorticoid Receptor (aa 524-795) with point mutations; expressed in transfected cells; host or cells: S. cerevisiae FY250
T4 sequence (P00375 1-187): T3 sequence (P00375 1-187)
T4 sequence (P06536 524-795 F620S/C656G limits assumed): T1 sequence (P06536 524-795 F620S/C656G limits assumed)
As to the kind of experiment: β-galactosidase activity assay, strain V497Y.
Excerpt: as §1, §2

Assay [5] addresses T5, LexA mDHFR / B42 gly6rGR2 (UniProt P00375+P06536, C656G/F620S).
T5 construct: rat Glucocorticoid Receptor (aa 524-795) with point mutations; expressed in transfected cells; host or cells: S. cerevisiae FY250
T5 sequence (P00375 1-187): T3 sequence (P00375 1-187)
T5 sequence (P06536 524-795 F620S/C656G limits assumed): T1 sequence (P06536 524-795 F620S/C656G limits assumed)
Put plainly: β-galactosidase activity assay, strain V496Y.
Excerpt: as §1, §2

Assay [6] has as its target T6, LexA eDHFR / B42 gly6rGR2 (UniProt P06536+P0ABQ4, C656G/F620S).
T6 construct: rat Glucocorticoid Receptor (aa 524-795) with point mutations; expressed in transfected cells; host or cells: S. cerevisiae FY250
T6 sequence (P0ABQ4 1-159): T1 sequence (P0ABQ4 1-159)
T6 sequence (P06536 524-795 F620S/C656G limits assumed): T1 sequence (P06536 524-795 F620S/C656G limits assumed)
Put plainly: β-galactosidase activity assay, strain V375Y.
Excerpt: as §1, §2

Assay [7] deals with T7, LexA eDHFR / B42 (GSG)rGR2 (UniProt P06536+P0ABQ4, C656G/F620S).
T7 construct: rat Glucocorticoid Receptor (aa 524-795) with point mutations; expressed in transfected cells; host or cells: S. cerevisiae FY250
T7 sequence (P0ABQ4 1-159): T1 sequence (P0ABQ4 1-159)
T7 sequence (P06536 524-795 F620S/C656G limits assumed): T1 sequence (P06536 524-795 F620S/C656G limits assumed)
Put plainly: β-galactosidase activity assay, strain V494Y.
Excerpt: as §1, §2

The target in a further assay is T8, LexA rGR2 / B42 eDHFR (UniProt P06536+P0ABQ4, C656G/F620S).
T8 construct: rat Glucocorticoid Receptor (aa 524-795) with point mutations; expressed in transfected cells; host or cells: S. cerevisiae FY250
T8 sequence (P06536 524-795 F620S/C656G limits assumed): T1 sequence (P06536 524-795 F620S/C656G limits assumed)
T8 sequence (P0ABQ4 1-159): T1 sequence (P0ABQ4 1-159)
Put plainly: β-galactosidase activity assay, strain V505Y.
Excerpt: as §1, §2

Assay [8] deals with T9, LexA (GSG)2mDHFR / B42 gly6rGR2 (UniProt P00375+P06536, C656G/F620S).
T9 construct: expressed in transfected cells; host or cells: S. cerevisiae FY250 with pMW106 lacZ reporter
T9 sequence (P00375 1-187): T3 sequence (P00375 1-187)
T9 sequence (P06536 524-795 F620S/C656G limits assumed): T1 sequence (P06536 524-795 F620S/C656G limits assumed)
Put plainly: β-galactosidase activity assay, strain V503Y.
Excerpt: as §1, §2

The target of assay [9] is T10, LexA (GSG)2rGR2 / B42 (GSG)2eDHFR (UniProt P06536+P0ABQ4, C656G/F620S).
T10 construct: rat Glucocorticoid Receptor (aa 524-795) with point mutations; expressed in transfected cells; host or cells: S. cerevisiae FY250
T10 sequence (P06536 524-795 F620S/C656G limits assumed): T1 sequence (P06536 524-795 F620S/C656G limits assumed)
T10 sequence (P0ABQ4 1-159): T1 sequence (P0ABQ4 1-159)
Put plainly: β-galactosidase activity assay, strain V510Y.
Excerpt: as §1, §2

Regarding `C[C@@H]1C[C@H]2C3CCC4=CC(=O)C=C[C@]4(C)[C@@]3(F)[C@@H](O)C[C@]2(C)[C@@]1(O)C(=O)NCCSCc1cccc(CSCC[C@H](NC(=O)c2ccc(N(C)Cc3cnc4nc(N)nc(N)c4n3)cc2)C(=O)O)c1` (stereo partly shown) [DM1], the B-gal activity in assay [1] is given as 307 β-galactosidase units; in assay [2], 4368 β-galactosidase units; in assay [3], −113 β-galactosidase units; in [4] it was −8 β-galactosidase units; in assay [5] it was −30 β-galactosidase units; in assay [6], 4978 β-galactosidase units. For the same compound, the B-gal activity in assay [7] was 9976 β-galactosidase units; on LexA rGR2 / B42 eDHFR, 557 β-galactosidase units; in [8], −5 β-galactosidase units; in assay [9] it was 601 β-galactosidase units.

The record behind these values is patent US7419780B2, “Methods and assays for screening protein targets” (The Trustees of Columbia University in the City of New York, priority 2000, dated 2008).
